Assay results reported in patent publication US20020002144A1, “Methods and compositions for bisubstrate inhibitors of acetyltransferases” (The Government of the United States of America, Department …, priority 1999, published 2002).

Assays:
[1] = test system: arylamine N-acetyltransferase (E.C. 2.3.1.5); settings: adverse reactions reported to result from acetylation of the drug; cited from earlier work
rat pinealocytes [2] = test: Cytotoxicity to pinealocytes (response to norepinephrine after wash out); type: cell-based; settings: 18 hour treatment with 0.5 μM, medium changed, then norepinephrine
Protocol: (§1) Pineal cell preparation and treatment: Pinealocytes were prepared from rat pineal glands by trypsinization as previously described (10). The cells were suspended in Dulbecco's modified Eagle medium (DMEM) containing 10% fetal calf serum and maintained (37° C.) for 18 h in a gas mixture of 95% air and 5% CO2. During this 18 hour period, some cells were treated, as indicated in Table 2 experiment 2, in aliquots of 50,000 cells/300 μl and washed prior to addition of fresh medium and further treatment. In some cases, as in Table 3, experiment 1, cells were not aliquoted until after 18 hours of control incubation and in these cases, aliquots of cells (50,000 cells/300 μl) were prepared and treated with drugs. Drugs were prepared in 100×concentrated solutions in water or dimethyl sulfoxide. The duration of the drug treatment was 5 h.
The effect of an 18 hour treatment with 0.5 μM N-bromoacetyltryptamine was examined. Following the 18 hour treatment, the medium was changed and fresh medium was added. Following this treatment, cells responded to norepinephrine treatment with an increase in melatonin production and AANAT activity.

AANAT [3] = molecular target: T1, AANAT (Ovis aries, UniProt Q29495); test: AANAT assay with aqueous extracts of AANAT/CoA/N-bromoacetyltryptamine pre-incubations; type: biochemical; settings: 20 μl extract in 100 μl AANAT assay
T1 construct: made in house
Protocol: AANAT assay: The specific activity of the AANAT preparation was determined from measurement of the activity of the enzyme and amount of protein in a preparation. Activity was assayed by incubating the enzyme with ^3H-acetyl CoA (0.5 mM, 4 μCi/μmole) and tryptamine hydrochloride (1 mM), bovine serum albumin (0.5 mg/ml) and the enzyme in total volume of 100 μl of sodium phosphate (0.1M, pH 6.8) (6,7). The incubation was terminated by extracting the product ^3H-acetyltryptamine with chloroform (1 ml). The chloroform phase was washed sequentially with 200 μl of the sodium phosphate buffer and twice with 200 μl of NaOH (1N). The radioactivity in 400 μl of the chloroform phase was determined following evaporation of chloroform under vacuum. Protein was measured by optical density at 280 nm and by dye binding using the Brandford procedure.
Incubations to study formation of CoA-S-N-acetyltryptamine.—Bromoacetyltryptamine (20 μM) was incubated (37° C., 30 min) with coenzyme A (20 μM), bovine serum albumin (0.5 mg/ml) and the enzyme in a total volume of 100 μl of Tris HCl (50 mM, pH 7.4) and the incubation was terminated by adding chloroform (1 ml) and vortexing. The aqueous phase was then removed. Samples of the aqueous phase from each chloroform extraction were analyzed by mass spectroscopy and for inhibitory activity in an AANAT assay.
This conclusion was supported by the biochemical evidence from experiments in which the aqueous extracts analyzed above were incubated with a fresh preparation of AANAT in an AANAT assay. Inhibitory activity of the extract was determined.

rat pinealocytes [4] = test: Melatonin production by norepinephrine-treated pinealocytes (radioimmunoassay of medium); type: cell-based; settings: for Melatonin production: Experiment 1, 18-24 hours; for Melatonin (18-23 hr): Experiment 2
Protocol: as §1
At the end of treatment period, cells were collected by centrifugation (2 min, 10,000 g) and the medium was removed and stored. Cell pellets were frozen immediately in dry ice and stored at −80° C. until determination of AANAT activity. The supernatant collected was used for determination of melatonin.
Melatonin analysis. Melatonin in the medium was determined by a radioimmunoassay as described previously (11,12). Briefly, melatonin was extracted from 300 μl of medium by vortexing with 1 ml of methylene chloride. After centrifugation, 700 μl of the organic phase was collected and evaporated to dryness. The residue was reconstituted in 500 μl of assay buffer (0.01M phosphate buffer, pH 7.5, containing 0.1% gelatin).
An ultraspecific melatonin antiserum from CIDtech Research Inc. (Mississauga, Ontario Canada) was used for the melatonin radioimmunoassay. Aliquots of extracted melatonin samples were diluted to 500 μl with assay buffer. 100 μl of melatonin antiserum and 50 μl of [^3H]melatonin (˜2000 cpm, at 45.5 Ci/mmol) were then added. After mixing, the tubes were incubated at 4° C. overnight. To separate the bound from the free [^3H] melatonin, 650 μl of saturated ammonium sulphate were added and the samples were incubated at 4° C. for 1 hr. The bound [^3H]melatonin was collected in a protein pellet by centrifugation (4,000 g×30 min) and re-dissolved in 550 μl of deionized water. 500 μl was then used for scintillation counting. Both inter- and intra-assay variability were less than 10%.
N-Bromoacetyltryptamine treatment of rat pinealocytes inhibits melatonin production. Experiments were conducted to determine if N-bromoacetyltryptamine could inhibit production of melatonin. This was done using rat pinealocytes in which melatonin production was elevated by treatment with norepinephrine, which acts by elevating the activity of AANAT.

AANAT [5] = molecular target: T2, AANAT (Rattus norvegicus, UniProt Q64666); test: AANAT activity in treated pinealocytes; type: cell-based; settings: Experiment 2
T2 construct: Pinealocytes were prepared from rat pineal glands by trypsinization; endogenous in cells; host or cells: primary pinealocytes from male Sprague-Dawley rats
Protocol: AANAT assay: The specific activity of the AANAT preparation was determined from measurement of the activity of the enzyme and amount of protein in a preparation. Activity was assayed by incubating the enzyme with ^3H-acetyl CoA (0.5 mM, 4 μCi/μmole) and tryptamine hydrochloride (1 mM), bovine serum albumin (0.5 mg/ml) and the enzyme in total volume of 100 μl of sodium phosphate (0.1M, pH 6.8) (6,7). The incubation was terminated by extracting the product ^3H-acetyltryptamine with chloroform (1 ml). The chloroform phase was washed sequentially with 200 μl of the sodium phosphate buffer and twice with 200 μl of NaOH (1N). The radioactivity in 400 μl of the chloroform phase was determined following evaporation of chloroform under vacuum. Protein was measured by optical density at 280 nm and by dye binding using the Brandford procedure. Pineal cell preparation and treatment: Pinealocytes were prepared from rat pineal glands by trypsinization as previously described (10). The cells were suspended in Dulbecco's modified Eagle medium (DMEM) containing 10% fetal calf serum and maintained (37° C.) for 18 h in a gas mixture of 95% air and 5% CO2. During this 18 hour period, some cells were treated, as indicated in Table 2 experiment 2, in aliquots of 50,000 cells/300 μl and washed prior to addition of fresh medium and further treatment. In some cases, as in Table 3, experiment 1, cells were not aliquoted until after 18 hours of control incubation and in these cases, aliquots of cells (50,000 cells/300 μl) were prepared and treated with drugs. Drugs were prepared in 100×concentrated solutions in water or dimethyl sulfoxide. The duration of the drug treatment was 5 h. At the end of treatment period, cells were collected by centrifugation (2 min, 10,000 g) and the medium was removed and stored. Cell pellets were frozen immediately in dry ice and stored at −80° C. until determination of AANAT activity. The supernatant collected was used for determination of melatonin.

[6] = Treatment I BAT (0.5 μM) (0-18 hr), wash out, Treatment II NE (10 μM) (18-23 hr)
[7] = Treatment I DMSO (0-18 hr), Treatment II NE 10 μM + BAT (0.5 μM) (18-23 hr)
[8] = Treatment I DMSO (0-18 hr), Treatment II NE 10 μM (18-23 hr)

T2 sequence (Q64666 whole entry): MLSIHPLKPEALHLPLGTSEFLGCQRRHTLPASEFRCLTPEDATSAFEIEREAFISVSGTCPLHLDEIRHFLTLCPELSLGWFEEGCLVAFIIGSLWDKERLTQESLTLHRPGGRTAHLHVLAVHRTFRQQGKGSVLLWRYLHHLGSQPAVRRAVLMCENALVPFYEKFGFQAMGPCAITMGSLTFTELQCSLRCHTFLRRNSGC
T1 sequence (Q29495 whole entry): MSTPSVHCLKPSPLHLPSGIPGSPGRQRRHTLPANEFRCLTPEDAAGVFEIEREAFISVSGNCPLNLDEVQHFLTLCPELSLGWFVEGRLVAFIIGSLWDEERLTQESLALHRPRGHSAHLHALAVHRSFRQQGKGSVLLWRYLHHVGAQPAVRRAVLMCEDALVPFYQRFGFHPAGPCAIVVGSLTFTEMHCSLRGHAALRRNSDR

CCC1(c2ccc(N)cc2)CCC(=O)NC1=O (centres unmarked) [Aminoglutethamide]
Adverse Drug Reaction Reported [1]: Adrenal insufficiency

Nc1ccc(S(=O)(=O)c2ccc(N)cc2)cc1 [Dapsone]
Adverse Drug Reaction Reported [1]: Hematological

NNc1nncc2ccccc12 [Hydralazine]
Adverse Drug Reaction Reported [1]: Lupus, uncontrolled hypertension

NNC(=O)c1ccncc1 [Isoniazid]
Adverse Drug Reaction Reported [1]: Peripheral neuropathy, liver

O=C(CBr)NCCc1c[nH]c2ccccc12 [N-Bromoacetyltryptamine]
cytotoxicity (rat pinealocytes [2]): not cytotoxic
remaining activity at 20 µM (AANAT [3]; Complete pre-assay reaction (AANAT + CoA 20 μM + N-bromoacetyltryptamine 20 μM, 37° C., 30 min), read-out: AANAT Activity (% of control)): 38%
AANAT Activity (% of control) (AANAT [3]; pre-assay reaction Minus CoA): 107%
AANAT Activity (% of control) (AANAT [3]; pre-assay reaction Zero time (not incubated)): 110%
AANAT Activity (% of control) (AANAT [3]; pre-assay reaction with Boiled enzyme): 104%
production of melatonin (rat pinealocytes [4]; 5 hour treatment with 0.1, 0.5 or 1 μM, norepinephrine-treated rat pinealocytes): markedly reduced
Melatonin production (rat pinealocytes [4]; N-Bromoacetyltryptamine (1 μM) alone): 0.65 ± 0.05 pmol/100,000 cells
Melatonin production (rat pinealocytes [4]; Norepinephrine (10 μM) + N-Bromoacetyltryptamine (0.1 μM)): 4.55 ± 0.04 pmol/100,000 cells
Melatonin production (rat pinealocytes [4]; Norepinephrine (10 μM) + N-Bromoacetyltryptamine (1 μM)): 0.95 ± 0.25 pmol/100,000 cells
Melatonin (18-23 hr) (rat pinealocytes [4]; Treatment I BAT (0.5 μM) (0-18 hr), wash out, Treatment II Control (18-23 hr)): 1.78 ± 0.14 pmole/10^5 cells
Melatonin (18-23 hr) (rat pinealocytes [4]; [6]): 12.22 ± 2.90 pmole/10^5 cells
Melatonin (18-23 hr) (rat pinealocytes [4]; [7]): 1.88 ± 0.82 pmole/10^5 cells
AANAT (23 hr) (AANAT [5]; [6]): 0.86 ± 0.06 μmol/h/105 cells
AANAT (23 hr) (AANAT [5]; [7]): 0.48 ± 0.05 μmol/h/105 cells

NC[C@H](O)c1ccc(O)c(O)c1 [Norepinephrine, reference compound]
Melatonin production (rat pinealocytes [4]; Norepinephrine (10 μM) alone): 12.43 ± 2.00 pmol/100,000 cells
Melatonin (18-23 hr) (rat pinealocytes [4]; [8]): 10.44 ± 1.07 pmole/10^5 cells
AANAT (23 hr) (AANAT [5]; [8]): 0.89 ± 0.10 μmol/h/105 cells

CCN(CC)CCNC(=O)c1ccc(N)cc1 [Procainamide]
Adverse Drug Reaction Reported [1]: Lupus, uncontrolled arrhythmias

Cc1cc(C)nc(NS(=O)(=O)c2ccc(N)cc2)n1 [Sulfamethazine]
Adverse Drug Reaction Reported [1]: Hematological/Gastrointestinal
